Several values for one entry are separate records, joined by “and”; a condition that tells them apart may be missing. Equal entries are not always repeated. Where two headings read alike, the source gives them in different places. No end group written: not given here.
Tests used:
HLA-A*0201 (HLA-A2.1) = HLA-A*0201 (HLA-A2.1) (Homo sapiens, UniProt P04439, D140Y/D185E/D98H/E176V/E277Q/G131W/G231S/I119V/I121R/I166T/I218V/L300P/L318F/N151K/N90K/P208A/P217A/Q86G/Q94H/R138H/R169H/T345S); test: biochemical; assay type: binding
HLA-A24 = assay type: binding, human
A2.1 HLA molecules = A2.1 HLA molecules (Homo sapiens, UniProt P04439, D140Y/D185E/D98H/E176V/E277Q/G131W/G231S/I119V/I121R/I166T/I218V/L300P/L318F/N151K/N90K/P208A/P217A/Q86G/Q94H/R138H/R169H/T345S); assay type: binding; parameters: A*0201 / A2.1 Binding / A2 Bind. / A2 / A2.1 (binding capacity): scale not given here
HLA-A1 (A*0101) = HLA-A1 (A*0101) (Homo sapiens, UniProt P04439, A114D/A174V/A182V/D101N/D185E/E176A/E190D/L180R/Q94H/R68K/S129P/T187R/V100A/V91M/W191G); test: biochemical; assay type: binding
A*2902 = A*2902 (Homo sapiens, UniProt P04439, A270S/D101N/D185E/E176V/E277Q/E87Q/F33T/G231S/H175R/I121M/I218V/I322F/K168Q/L300P/L318F/M331R/P208A/P217A/Q86L/T323A/T345S/V100A/V358M); test: biochemical; assay type: binding
A*3002 = A*3002 (Homo sapiens, UniProt P04439, D101N/D140H/D185E/E176R/F33S/G80R/H175R/K168Q/Q94H/R138E/R41S/V100E); test: biochemical; assay type: binding
Chain of A*3002 (P04439 whole entry, looked up, the tested form may be a part, stated change not applied): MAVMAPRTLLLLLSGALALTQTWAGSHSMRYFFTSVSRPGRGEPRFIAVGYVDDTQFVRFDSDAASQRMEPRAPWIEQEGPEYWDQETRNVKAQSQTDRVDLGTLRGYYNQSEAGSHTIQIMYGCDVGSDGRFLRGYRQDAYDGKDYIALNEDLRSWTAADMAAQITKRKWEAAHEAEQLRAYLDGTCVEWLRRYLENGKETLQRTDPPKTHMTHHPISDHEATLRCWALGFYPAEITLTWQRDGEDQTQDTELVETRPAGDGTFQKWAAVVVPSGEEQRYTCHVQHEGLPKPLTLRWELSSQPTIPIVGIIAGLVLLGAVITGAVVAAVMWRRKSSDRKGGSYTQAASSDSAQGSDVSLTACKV

| Substance | binding to HLA-A2.1 (column 3; no allele head shown for these rows) (HLA-A*0201 (HLA-A2.1)) | binding to HLA-A24 (column 6; no allele head shown for these rows) (HLA-A24) | further results |
| --- | --- | --- | --- |
| FLWGPRALA | 0.042 and 0.027 | 0 | A2 (A2.1 HLA molecules): 0.0420; A2 Bind. (A2.1 HLA molecules): 0.0420 |
| ETSYVKVLEY | 0 | 0 | – |
| IMPKTGFLI | 0.0035 | 3.2 | – |
| EALEAQQEAL | 0 | 0 | – |
| AALSRKVAEL | – | 0 | – |
| SLQLVFGI | 0.0094 | 0 | – |
| IMPKTGFLII | 0.0007 | 0.050 | – |
| KVADLVGFL | 0.0091 | 0 | – |
| ALGLVCVQAA | 0.0002 | 0 | – |
| RALAETSYV | 0.014 | 0 | A2 (A2.1 HLA molecules): 0.0100; A2 Bind. (A2.1 HLA molecules): 0.0100 |
| AATSSSSPL | 0 | <0.0002 | – |
| FLIIVLVMIAM | 0.0041 and 0.0031 | 0.0011 | – |
| ALAETSYVK | 0.0002 | 0 | – |
| KAEMLESVL | 0 | 0 | – |
| KVAELVHFL | 0.073 | 0.0005 | – |
| GASSFSTTI | 0 | 0.0002 | – |
| QIMPKTGFLII | 0.0003 | 0.0030 | – |
| LAETSYVKVL | 0 | <0.0002 | – |
| SAYGEPRKL | 0.0002 | <0.0002 | – |
| QAATSSSSPL | 0 | <0.0002 | – |
| KAEMLESVI | 0 | <0.0002 | – |
| VLGTLEEV | 0.0088 | 0 | – |
| ALREEEEGV | 0.0056 | 0 | A2 Bind. (A2.1 HLA molecules): 0.0210 |
| KAGLLIIVL | – | 0 | – |

| Substance | binding to HLA-A2.1 (column 3; no allele head shown for these rows) (HLA-A*0201 (HLA-A2.1)) | binding to HLA-A24 (column 6; no allele head shown for these rows) (HLA-A24) | further results |
| --- | --- | --- | --- |
| GLVCVQAAT | 0.0007 | 0.0001 | – |
| VTETLEEITGY [Peptide 9012.0178] | – | – | IC50 (HLA-A1 (A*0101)): 0.02 µM; IC50 (A*2902): > 20 µM; IC50 (A*3002): 11.3 µM |
| VMIAMEGGHA | 0.0023 | 0 | A2 Bind. (A2.1 HLA molecules): 0.0360 |
| GLVCVQAA | 0.0008 | 0 | – |
| CILESLFRA | 0.073 | 0 | A2 Bind. (A2.1 HLA molecules): 0.0460 |
| LVLGTLEEV | 0.032 | 0.0003 | A2 (A2.1 HLA molecules): 0.0320; A2 Bind. (A2.1 HLA molecules): 0.0320; A2.1 relative binding (ratio of binding of test peptide relative to standard peptide) (A2.1 HLA molecules): 0.032 |
| VADLVGFLLL | 0.0008 | 0.0003 | – |
| YVIKVSARV | 0.018 | 0 | A2 Bind. (A2.1 HLA molecules): 0.0140 |
| F185.01 (LYSACFWWL) [Peptide F185.01] | – | – | IC50 (HLA-A24; read-out: A*2402): 0.028 µM |
| FLLLKYRA | 0.0007 | 0 | – |
| KFYSKISEY [Peptide 78.0363] | – | – | IC50 (HLA-A1 (A*0101)): > 20 µM; IC50 (A*2902): 1.59 µM; IC50 (A*3002): 0.0095 µM |
| EIWEELSVMEV | 0.013 | 0 | – |
| KMVELVHFLL | 0.071 | 0.0008 | A2 (A2.1 HLA molecules): 0.2200; A2 Bind. (A2.1 HLA molecules): 0.1100 |
| VADLVGFLL | 0.0011 | 0.0007 | – |
| VAELVHFLL | 0 | 0.039 | – |
| SAYGEPRKLL | 0 | 0.0008 | – |
| MLESVIKNYK | 0 | 0 | – |
| VAELVHFLLL | – | 0.0018 | – |
| ALAETSYVKV | 0.017 | 0 | A2 (A2.1 HLA molecules): 0.0150; A2 Bind. (A2.1 HLA molecules): 0.0150 |
| ILESLFRA | 0.0017 | 0.0011 | – |
| LTEITGYLY [Peptide 9012.0126] | – | – | IC50 (HLA-A1 (A*0101)): 0.016 µM; IC50 (A*2902): 0.025 µM; IC50 (A*3002): 0.151 µM |
| ISEYRHYQY [Peptide 78.0254] | – | – | IC50 (HLA-A1 (A*0101)): 0.046 µM; IC50 (A*2902): 0.853 µM; IC50 (A*3002): 0.081 µM |
| AYIDNVYKF [Peptide 979-01, reference compound] | – | – | apparent % of available receptor (active MHC) (HLA-A24): 8.3%; Kd (HLA-A24; read-out: KD from Scatchard experiments, A24): 0.136 µM; Kd (HLA-A24; read-out: apparent KD from cold inhibition experiments, A24): 0.03 µM |
| EYRHYQYSLY [Peptide 78.0183] | – | – | IC50 (HLA-A1 (A*0101)): 2.27 µM; IC50 (A*2902): 2.37 µM; IC50 (A*3002): 0.13 µM |

| Substance | binding to HLA-A2.1 (column 3; no allele head shown for these rows) (HLA-A*0201 (HLA-A2.1)) | binding to HLA-A24 (column 6; no allele head shown for these rows) (HLA-A24) | further results |
| --- | --- | --- | --- |
| KALKFYSKI [Peptide E6-72] | – | – | binding class for HLA-A24 (HLA-A24): high affinity (key: high affinity: >0.1; intermediate affinity: 0.1-0.01; low affinity: 0.01-0.001) |
| GNEKTYFKY [Peptide 86.0160] | – | – | IC50 (HLA-A1 (A*0101)): 2.3 µM; IC50 (A*2902): 0.319 µM; IC50 (A*3002): 0.739 µM |
| AFTDLTIVY [Peptide 78.0348] | – | – | IC50 (HLA-A1 (A*0101)): 0.031 µM; IC50 (A*2902): 0.036 µM; IC50 (A*3002): 0.071 µM |
| KMVELVHFL | 0.13 | 0.0043 | A2.1 (HLA-A*0201 (HLA-A2.1)): 0.16; A2 Bind. (A2.1 HLA molecules): 0.1600 |
| EMLESVIKN | – | – | A2.1 (HLA-A*0201 (HLA-A2.1)): <0.0002; A24 (HLA-A24): 0 |
| GASSLPTTM | 0 | 0.0010 | – |
| GASAFPTTI | 0 | <0.0002 | – |
| GLLGDNQIM | 0.0054 | 0.0002 | A2.1 (HLA-A*0201 (HLA-A2.1)): 0.0051 |
| QAEPDRAHY [Peptide 78.0244] | – | – | IC50 (HLA-A1 (A*0101)): 3.27 µM; IC50 (A*2902): > 20 µM; IC50 (A*3002): 0.016 µM |
| AAISRKMVEL | 0 | 0 | – |
| LFYSKVRKY [Peptide 78.0384] | – | – | IC50 (HLA-A1 (A*0101)): > 20 µM; IC50 (A*2902): 0.201 µM; IC50 (A*3002): 0.035 µM |
| RAHYNIVTF [Peptide E7-49] | – | – | binding class for HLA-A24 (HLA-A24): intermediate affinity (key: high affinity: >0.1; intermediate affinity: 0.1-0.01; low affinity: 0.01-0.001) |
| YLEYGRCRTV | 0.0097 | 0 | – |
| FYSKVRKYRY [Peptide 78.0176] | – | – | IC50 (HLA-A1 (A*0101)): > 20 µM; IC50 (A*2902): 0.146 µM; IC50 (A*3002): 0.326 µM |
| RFHNIGGRW [Peptide 78.0369] | – | – | IC50 (HLA-A1 (A*0101)): > 20 µM; IC50 (A*2902): 12.2 µM; IC50 (A*3002): 0.013 µM |
| ILLWQPIPV | 1.4 | 0 | – |
| LVFGIELMEV | – | 0 | – |
| EAQQEALGL | 0 | <0.0002 | – |
| EYRHYNYSVY [Peptide 78.0180] | – | – | IC50 (HLA-A1 (A*0101)): > 20 µM; IC50 (A*2902): 16 µM; IC50 (A*3002): 0.253 µM |
| VIPHAMSSCGV | 1.4 | 0 | – |
| SLQLVFGIDV | 0.0047 | 0.0001 | – |
| VLVTCLGL | 0.0010 | 0 | – |

— patent publication US9340577B2, “HLA binding motifs and peptides and their uses” (priority 1992, dated 2016)
